Measured values published in article PMC6053448, “Small molecule activator of Nm23/NDPK as an inhibitor of metastasis” (Scientific Reports, 2018).

Experiments:
[1] = biological target: T1, recombinant human Nm23-H1 (NDPK-A) (Homo sapiens, UniProt P15531); experiment: NDPK assay, activation; format: biochemical; settings: number only in supplement
T1 construct: gene NME1; pET-3c, E. coli BL21(DE3), no tag mentioned; ATP-sepharose purification

[2] = biological target: T1, recombinant human Nm23-H1 (NDPK-A); experiment: NDPK assay, double reciprocal plot; format: biochemical; settings: 5 µM ATP, without NMac1

T1 sequence (P15531 whole entry): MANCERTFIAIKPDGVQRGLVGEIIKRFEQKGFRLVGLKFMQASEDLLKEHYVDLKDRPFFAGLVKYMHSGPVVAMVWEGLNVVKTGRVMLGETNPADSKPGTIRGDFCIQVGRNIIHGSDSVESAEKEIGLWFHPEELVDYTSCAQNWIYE

**Q.** `COc1ccc(/C=C/[C@H]2CCC=C[C@@H]2c2ccc(OC)c(OC)c2)cc1OC` [NMac3, 3S-(3,4-dimethoxyphenyl)-4R-[(E)-3,4-dimethoxystyryl]cyclohex-1-ene] was tested. Which “% activation” value [1] did it give?
**A.** The chirality of the molecule did not affect the activation of Nm23-H1

**Q.** Which Km [2] does the source give for `O=c1ccn([C@@H]2O[C@H](COP(=O)(O)OP(=O)(O)O)[C@@H](O)[C@H]2O)c(=O)[nH]1` [UDP] here?
**A.** NMac1 decreased the Km value of Nm23-H1 for substrate UDP without affecting Vmax
